Consider three compounds from patent publication US20160143926A1, “COMPOSITIONS AND METHODS FOR THE PREPARATION OF KIDNEY PROTECTIVE AGENTS COMPRISING AMIFOSTINE AND AMINO ACIDS” (priority 2013, published 2016).

The subject of assay [1] is kidneys. Description: Kidney protection / 68Ga-DOTATATE uptake in the kidneys, biodistribution studies in mice. The format is in vivo. Conditions: Amifostine alone at a dose of 0.63 mg/ml, co-administrated with 68Ga-DOTATATE
On the procedure: The first i.v. injection of the composition may be scheduled 30 min prior to 68Ga-DOTATATE administration, while the next two injections may be performed at 15 min and 60 min, respectively, after the radiopeptide administration.
Kidney protection effects of Lysine-Arginine (12.4 mg/ml and 12.5 mg/ml, respectively) and commercially available Clinisol® and Gelofusine co-injected with ^68Ga-DOTATATE (40 uCi) are determined based on biodistribution studies in mice. Lysine-Arginine, Clinisol® and Gelofusine solutions were used as positive controls to determine the efficacies of compositions in accordance with embodiments of the invention.
Mice (n=5/group, male 6-8 weeks old) were given tail intravenous injection (200 ul) of respective solutions, 30 min prior to the administration of ^68Ga-DOTATATE, followed by further injections at 15 min and 1 hr post injection. An example of application schedule is illustrated in FIG. 1.
Mice were then sacrificed by CO2 asphyxiation, and kidneys were collected to determine the amounts of radiation absorbed, which are then compared to the total injected radioactive doses.
Mice (n=5/group, male 6-8 weeks old) were given tail intravenous injection (200 ul) of respective solutions, 30 min prior to the administration ^68Ga-DOTATATE, followed by further injections 15 min and 1 hr post injection, as described in Example 1.

For assay [2], the system named is kidneys. Conditions: patients, 111In-DTPA-octretreotide, cited from earlier work.
In assay [3] the test system is kidneys. The following applies: rats, intravenous co-injection of 400 mg/kg with 111In-DTPA-octretide; cited from earlier work.

“And” between values parts separate entries of the source, which are not always exact repeats. Equal entries are not always repeated. Where two headings read alike, the source gives them in different places.

On to `NCCCNCCSP(=O)(O)O` [Amifostine], for which, in the assay on kidneys [1], the “kidney protection, Amifostine used alone” value is 12.24% and 12.2%.
For `NCCCC[C@H](N)C(=O)O` [lysine], the kidney protection was 17%±9% in the assay on kidneys [2] (25 g of lysine) and 44%±11% in the assay on kidneys [2] (infusion of 75 g of lysine).
For the compound `NCCCC[C@H](N)C(=O)O` [L-Lysine], the kidney protection with kidneys [3] is 40%.
